Here are results for ten compounds from US11324209B2, “Composition to promote migration of acarids” (ACAR'UP SPRL, priority 2017, dated 2022).

One data set deals with acarids. The data set is described as follows: Acarid migration tests of attraction enhancers alone and with limonene (description). In kind it is in vivo. The conditions noted are these: for acarid attracting effect when used alone: low doses.
Data set [1] can be described thus: Shelf life and storage of the aqueous solution, citral and limonene by GC. In kind it is physicochemical. The method, then:
Finding an appropriate storage material. Verifying the presence of volatile attractive molecules in fresh solutions (freshly produced, 1 day old) and stored solutions (8-12 months). Determining the quantity of those attractive molecules in said solutions, and thus allowing to follow said solutions' chemical profiles within time.
An aqueous solution of 3.5 ng/μL essential oil from Melissa officinalis, 3.6 ng/μL essential oil from Cymbopogon flexuosus citraliferum and 5 ng/μL polysorbate 20 was produced, bottled and stored.
Bottle material test: Two types of 100-ml bottles were tested. A plastic and an aluminum bottle were produced (20 bottles for each material). The bottles were stored 1 month, and then tested for the presence of citral.
Long term shelf life test: 38 bottled solutions (stored 8-12 months) and 11 bottled fresh solutions (stored 1 day) were tested to compare the presence and quantity of citral and limonene.
Quantitative measurements for citral and limonene were done by gas chromatography (GC). These are well known in the art. The essential oils were extracted from 25 ml of said bottled solution using 2 ml of n-hexane (LC-MS or HPLC grade). A sample of (1 μl) of the n-hexane extract was injected in the GC-MS equipped with a mass detector and using an OPTIMA-5MS capillary column (30 m, 0.25 mm I.D., […]). Programmed temperature elution was employed with an initial temperature of 40° C., then ramped to 280° C. at 8° C./min and held at 280° C. for 5 min. Helium was used as the carrier gas. Electron impact ionization was performed using an electron energy of 70 eV and a mass range of 40-800 m/z.

For data set [2], the system named is Dermatophagoides pteronyssinus. Description: Binary choice test of mites between tested felt and control felt in a Petri dish. In kind it is in vivo. Details: key to stat Test: Stat diff: statistically different; NS: not significant. The conditions noted are these: for Mean (binary choice of dust mites, tested felt) / stat Test: control felt + 1 μL H2O. The procedure:
Aim of the experiments: All experiments are tests of binary choice aiming to determine the preference of mites and the place where they prefer to stay (at least for 30 min).
Rearing: The species studied was Dermatophagoides pteronyssinus, a dust mite common in mattresses in Eurasia. Mites are reared in Petri dishes and fed with human skin flakes (skin and whiskers obtained by cleaning electric shavers). All mites were reared together under defined conditions (20° C. and 75% relative humidity). The experiments took place in a room kept at 20° C. and 40% relative humidity.
Materials and methods: A group of mites (20<n<40) was placed in the centre of a Petri dish (∅=5.5 cm) around which two semi-circles of felt were placed (see FIG. 1). The pieces of felts were 70 mg/cm^2, their thickness was 2 mm. One felt is the control (control felt); the other felt is the felt with the tested item, for instance the felt that is impregnated with a chemical compound that is tested.
Mites move spontaneously towards one of the two felts.
Observations and counting of mites was made under binocular microscope (magnification 10*). The set-up is illuminated with a cold lamp (KL 1500 LCD, Schott®), the lighting is symmetric and the light intensity was 50 Klux. The experimental conditions were controlled in the room (T° C.: 19-22° C. and RH 40%).
Aim of the experiments: In the experiments, the tested felt was impregnated with chemicals that may be chemical acarid attractants.
Different compounds were tested: Citral, limonene, α-pinene, eucalyptol, lavendulol, polysorbate 20. Dust mites were attracted to the dilute citral (10^−6) but the citral 10^−3 is repellent. The limonene (dil. 10^−5) and the α-pinene (dil. 10^−6) were attractive for mites.

The subject of data set [3] is Dermatophagoides pteronyssinus. Description: Trap test on infested mini-mattresses with sprayed felt, mites counted via Berlese funnel. Type of data set: in vivo. The conditions noted are these: felt 100% polyester; 4 ml/200 cm^2; drying + exposure 0 h + 2 h; dilution 0.00001. The method, then:
Rearing: The species studied was Dermatophagoides pteronyssinus, a dust mite common in mattresses in Eurasia. Mites are reared in Petri dishes and fed with human skin flakes (skin and whiskers obtained by cleaning electric […]). All mites were reared together under defined conditions (20° C. and 75% relative humidity). The experiments took place in a room kept at 20° C. and 40% relative humidity. Aim of the experiments: The aim was to test the trap in condition similar to the conditions that will be met by the user of the trap. Materials and methods: The mattresses were built at a smaller scale (15× reduction) than usual mattresses. These mini-mattresses are made in polyurethane and covered by a cover in cotton. […] The fabric was a felt of 20 mg/cm^2 and is a rectangle of 10 cm×20 cm. It was placed on the mini-mattress. Then the attractive solution was sprayed on the fabric with a spray bottle. The fabric was left in place on the mattress. During this time, the mites moved in the felt. It is very difficult to count directly the mites hidden in the mattress and in the fabric. Therefore, we used a Berlese funnel which is a device that is usually used to separate insects from litter. Here, we used it to separate the mites form their mattress or from the fabric. […] The jar was emptied into a Petri dish and we counted mites under binocular. […]

The mark [4] stands for this setting: Aluminium bottle, stored 1 month.
Where [5] appears, read: blue felt + 1 μL, dil 10^−6, control white felt + 1 μL H2O.
Where [6] appears, read: felt + 1 μL of Citral-0 (dilution not given).

“And” between values parts separate entries of the source, which are not always exact repeats. Equal entries are not always repeated.

For `C=CC(C)(O)CCC=C(C)C` (centres unmarked) [Linalool, 3,7-dimethyl-1,6-octadien-3-ol], the “acarid attracting effect when used alone” value in the data set on acarids is reported as “did not appear to have a significant attracting effect”. Also, in the data set with acarids (combined with limonene and other attractants), the “effect in combination with limonene” value is recorded as “significant increase in the migrated population”.
Consider `CC(C)=CCC/C(C)=C\C=O` [Neral], for which the “content in the bottled aqueous solution (bottle material test)” value in data set [1] (setting [4]) is on record as 12.68% ± 0.18; in data set [1] (Plastic bottle, stored 1 month), 12.63% ± 0.59.
On to `CC1=CC[C@H]2C[C@@H]1C2(C)C` [α-pinene, (15,55)-2,6,6-trimethylbicyclo[3.1.1]hept-2-ene], for which the “effect on dust mites” value in data set [2] (dilution 10^−6) is recorded as “attractive”. In data set [2] (felt + 1 μL, dil. 10^−5), the “Mean (binary choice of dust mites, tested felt)” value was 0.45 and the “stat Test” value is given as “NS”. Further, in data set [2] (felt + 1 μL, dilution 10^−6), the “Mean (binary choice of dust mites, tested felt)” value was determined as 0.58 and the “stat Test” value was “Stat diff”.
For the compound `C=C(C)C1CC=C(C)CC1` (centres unmarked) [Limonene, 1-methyl-4-(1-methylethenyl)-cyclohexene], in data set [2] (dil. 10^−5), the “effect on dust mites” value is reported as “attractive”. In data set [2] (felt + 1 μL, dil. 10^−5), the “Mean (binary choice of dust mites, tested felt)” value came out at 0.61 and the “stat Test” value is “Stat diff”. For the same compound, in data set [2] (felt + 1 μL, dilution 10^−6), the “Mean (binary choice of dust mites, tested felt)” value is recorded as 0.48 and the “stat Test” value is “NS”.
Take `CC(C)=CCCC(C)CC=O` (centres unmarked) [Citronellal, 3,7-dimethyloct-6-en-1-al]: in the data set with acarids, the “acarid attracting effect when used alone” value is “mild acarid attractant”. Further, the migrated population with acarids (tested with limonene for long contact times) is reported as roughly 1.
For `C=C(C)[C@H](CO)CC=C(C)C` [Lavendulol], in data set [2] (dilution not stated), the “effect on dust mites” value is recorded as “no statistically significant effect”. Besides, in data set [2] (felt + 1 μL, dilution 10^−6), the “Mean (binary choice of dust mites, tested felt)” value is 0.46 and 0.51; the “stat Test” value is “NS”.
As for `CC(C)=CCCC(C)=CC=O` [Citral, 3,7-dimethyl-2,6-octadienal], in data set [3], the trapped living mites is recorded as 17%. Besides, the “concentration in stored solutions (mean ± St. Dev.) / detection” value in data set [1] (38 solutions, 8-12 months after production) was “not detected”. Further, in data set [1] (plastic and aluminium bottles, stored 1 month), the “presence in bottled solution (bottle material test)” value was “present in each sample analysed”. Also, the “Mean (compound and color)” value in data set [2] (setting [5]) is listed as 0.84. In addition, the “Test stat (compound and color)” value in data set [2] (setting [5]) was “diff stat”. Moreover, in data set [2] (blue felt in combination with citral), the “migration of the mites toward the blue felt” value was 84%. For the same compound, the results for the “effect on dust mites” value in data set [2] (dilution 10^−3) and in data set [2] (dilution 10^−6) were “repellent” and “attracted”, respectively. For the same compound, the “Mean (binary choice of dust mites, tested felt)” value in data set [2] (setting [6]) is 0.03; in data set [2] (felt + 1 μL, dil 10^−3), 0.23; in data set [2] (felt + 1 μL, dilution 10^−6), 0.72. The “stat Test” value in data set [2] (setting [6]) is “Stat diff”; in data set [2] (felt + 1 μL, dil 10^−3) it was “Stat diff”; in data set [2] (felt + 1 μL, dilution 10^−6), “Stat diff”.
Turning to `CC(C)=CCC/C(C)=C/C=O` [Geranial], the “content in the bottled aqueous solution (bottle material test)” value was 12.56% ± 1.79 in data set [1] (setting [4]) and 13.03% ± 1.25 in data set [1] (Plastic bottle, stored 1 month).
On to `CC12CCC(CC1)C(C)(C)O2` [Eucalyptol, 1,3,3-Trimethyl-2-oxabicyclo [2.2.2.]octane], for which the “effect on dust mites” value in data set [2] (dilution not stated) is on record as “no statistically significant effect”. In data set [2] (felt + 1 μL, dilution 10^−6), the “Mean (binary choice of dust mites, tested felt)” value was 0.48 and 0.51; the “stat Test” value is on record as “NS”.
With “polyoxyethylene (20) sorbitan monolaurate [Polysorbate 20]”, the “effect on dust mites” value in data set [2] (dilution not stated) is on record as “no statistically significant effect”. Besides, in data set [2] (felt + 1 μL, dilution 10^−6), the “Mean (binary choice of dust mites, tested felt)” value was 0.50 and 0.53; the “stat Test” value was “NS”.
